This note sets out measurements from patent US4539429A, “Substituted aminophenylalkyl ketones, their preparation and use” (Sterling Drug Inc., priority 1983, dated 1985).

In one test the target is T1, cyclooxygenase (Rattus norvegicus, UniProt Q63921).
T1 construct: Single cell suspensions of RBL-1 cells are homogenized to obtain the microsomal fraction containing lipoxygenase and cyclooxygenase; endogenous in cells; host or cells: RBL-1 (rat basophilic leukemia) cells
T1 sequence (Q63921 27-602): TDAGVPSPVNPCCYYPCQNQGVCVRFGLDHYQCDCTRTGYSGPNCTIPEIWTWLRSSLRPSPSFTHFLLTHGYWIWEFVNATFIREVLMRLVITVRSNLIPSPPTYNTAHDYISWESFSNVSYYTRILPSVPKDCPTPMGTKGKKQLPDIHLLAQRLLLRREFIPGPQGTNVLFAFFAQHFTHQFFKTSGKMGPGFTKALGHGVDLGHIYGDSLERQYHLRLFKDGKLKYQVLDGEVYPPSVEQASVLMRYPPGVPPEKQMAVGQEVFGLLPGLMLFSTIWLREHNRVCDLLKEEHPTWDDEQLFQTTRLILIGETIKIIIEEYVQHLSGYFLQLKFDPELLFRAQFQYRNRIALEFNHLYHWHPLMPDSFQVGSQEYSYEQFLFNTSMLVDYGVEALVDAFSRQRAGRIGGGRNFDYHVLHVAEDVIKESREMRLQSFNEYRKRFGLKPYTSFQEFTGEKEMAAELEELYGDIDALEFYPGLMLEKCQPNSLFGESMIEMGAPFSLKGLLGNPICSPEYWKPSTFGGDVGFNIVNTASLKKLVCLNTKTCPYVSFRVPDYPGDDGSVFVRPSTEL
In words: Inhibition of cyclooxygenase from rat basophilic leukemia (RBL-1) cells (formation of PGD2, C1). The format is biochemical. As to conditions: cyclooxygenase product PGD2 (C1); for inhibition at 1 µM: read-out: % Inhibition of cyclooxygenase (Cl) formation. Here is the method: (§1) The primary screening test used is a determination of the inhibition of lipoxygenase and cyclooxygenase derived from rat basophilic leukemia (RBL-1) cells. The test was carried out according to the following procedure:
(§2) Single cell suspensions of RBL-1 cells are homogenized to obtain the microsomal fraction containing lipoxygenase and cyclooxygenase. Test compounds are added to the enzyme-containing homogenate for a 5 min preincubation period at 37° C. prior to the additon of ^14 C-arachidonic acid substrate. Following incubation at 37° C. for 15 min, the reaction is stopped by the addition of 2M formic acid and the enzyme-substrate products are extracted into chloroform. An aliquot of the extract is evaporated to dryness, reconstituted in ether to 1/10 original volume, spotted on thin layer chromatography plates and chromatographed. The peak areas of radioactivity representing the products are located by scanning the plates. The quantity of products formed is estimated by measuring the height of the radioactivity peaks observed on the chromatographic scans. Alternatively, the areas of radioactivity are scraped from the plate and the ^14 C quantitated by scintillation counting.

The target of the next test is T2, lipoxygenase (Rattus norvegicus, UniProt P12527).
T2 construct: Single cell suspensions of RBL-1 cells are homogenized to obtain the microsomal fraction containing lipoxygenase and cyclooxygenase; endogenous in cells; host or cells: RBL-1 (rat basophilic leukemia) cells
T2 sequence (P12527 1-673): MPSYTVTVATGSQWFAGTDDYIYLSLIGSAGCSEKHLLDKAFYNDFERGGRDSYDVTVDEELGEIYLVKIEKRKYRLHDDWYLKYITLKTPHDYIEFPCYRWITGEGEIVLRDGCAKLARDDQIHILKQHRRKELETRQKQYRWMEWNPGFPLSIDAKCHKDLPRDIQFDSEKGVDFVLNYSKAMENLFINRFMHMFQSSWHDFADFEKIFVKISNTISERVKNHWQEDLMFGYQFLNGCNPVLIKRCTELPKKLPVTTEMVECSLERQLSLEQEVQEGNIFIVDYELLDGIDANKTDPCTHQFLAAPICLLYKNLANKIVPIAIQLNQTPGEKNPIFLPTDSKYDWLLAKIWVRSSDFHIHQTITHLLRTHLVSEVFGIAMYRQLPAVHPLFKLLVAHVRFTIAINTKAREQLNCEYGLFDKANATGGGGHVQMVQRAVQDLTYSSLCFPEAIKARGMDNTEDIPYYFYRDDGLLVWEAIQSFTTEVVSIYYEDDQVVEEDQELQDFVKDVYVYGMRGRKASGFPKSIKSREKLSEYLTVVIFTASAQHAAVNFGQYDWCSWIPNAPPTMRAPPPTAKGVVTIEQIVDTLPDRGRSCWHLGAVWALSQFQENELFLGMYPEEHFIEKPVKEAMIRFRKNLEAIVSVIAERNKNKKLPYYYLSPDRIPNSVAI
Briefly: Inhibition of lipoxygenase from rat basophilic leukemia (RBL-1) cells (formation of L1 5,12-di-HETE and L2 5-HETE). Format: biochemical. Here is the method:
as §1, §2

Test [1] has as its system SRS-A component of immunologically induced bronchoconstriction. In words: Effect on the SRS-A component of immunologically induced bronchoconstriction in guinea pigs. The format is in vivo, guinea pig. As for the experimental part: The test was carried out according to the following procedure:
Two weeks after immunization with egg albumin, guinea pigs are prepared for bronchoconstriction determination. One hour prior to antigen challenge, each animal is dosed orally with indomethacin and chlorpheniramine. Animals are anesthetized with sodium pentobarbital, the trachea cannulated and the animal artifically respired. Arachidonic acid is administered intravenously prior to antigen challenge. The resulting bronchoconstriction is recorded by the standard lung overflow procedure and the peak increase in intratracheal pressure (mm Hg) over a 10 minute observation period is recorded. Compounds are evaluated for their ability to prevent the increased intratracheal pressure in an experimental group of animals as compared to the medicated (indomethacin+chlorpheniramine+arachidonic acid) control group. The results are expressed in terms of percent inhibition or as ED50 values (effective dose in 50% of the animals).

Structures are written as SMILES. Like-named read-outs stand apart in the source and are kept apart here.

With `COc1ccc(Nc2ccc(O)cc2)c(C(C)=O)c1` [Example 1c, 1-[2-(4-Hydroxyphenylamino)-5-methoxyphenyl]ethanone], the inhibition at 1 µM at cyclooxygenase turned out to be 36%; at lipoxygenase (read-out: % Inhibition of lipoxygenase (L1) formation), 88%; on lipoxygenase (read-out: % Inhibition of lipoxygenase (L2) formation) it was 88%. The IC50 against cyclooxygenase was more than 1000 nM; at lipoxygenase, 70 nM. Moreover, in test [1] (Cavia porcellus, iv, indomethacin + chlorpheniramine pretreated, arachidonic acid i.v. before antigen challenge, read-out: In vivo Guinea Pig ED50), the ED50 was determined as 2.7 mg/kg. In addition, the “In vivo Guinea Pig % inhib.” value in test [1] (at 1 mg/kg orally, increased intratracheal pressure vs medicated control group) was determined as 52%.

Consider `CC(=O)c1ccccc1Nc1ccc(O)cc1` [Example 2c, 1-[2-(4-Hydroxyphenylamino)phenyl]ethanone], for which the inhibition at 1 µM amounted to 9% on cyclooxygenase; 61% at lipoxygenase (1 μM, L1 = 5,12-di-HETE, read-out: % Inhibition of lipoxygenase (L1) formation); 72% on lipoxygenase (1 μM, L2 = 5-HETE, read-out: % Inhibition of lipoxygenase (L2) formation).

The inhibition is the relative decrease from the control value, in per cent. Broadly, the IC50 is the midpoint of a concentration-inhibition curve. One may read the ED50 as the midpoint of the dose-response relation.
